Measured values: publication PMC10147685, “Safety, tolerability, and pharmacokinetics of Aurora kinase B inhibitor AZD2811: a phase 1 dose-finding study in patients with advanced solid tumours” (British Journal of Cancer, 2023)
Like-named read-outs stand apart in the source and are kept apart here.

Test: Pharmacokinetics: AZD2811 whole blood concentrations and urine excretion
Type: in vivo, human
Conditions: for Cmax / AUC(0-t) / Tmax: human, whole blood; for Cmax: read-out: Geometric mean Cmax (CV%); for AUC(0-t): compartmental PK analysis, read-out: Geometric mean AUC(0–504h) (CV%); for Tmax: read-out: Median tmax (range)
Method: AEs were assessed throughout the treatment and follow-up periods. Patients were followed until all treatment-related toxicity resolved, or for at least 30 days post-study drug discontinuation. AEs were graded according to CTCAE v4.03. Venous blood samples (4 mL) for measurement of AZD2811 concentrations were collected at Cycle 1 Days 1–6, 8, 15, 16, and 22 and Cycle 2 Day 1 in Cohorts 1–6; Cycle 1 Days 1, 4, 8, 12, and 22 in Cohort 7; Cycle 1 Days 1, 4, 8, 12, and 15 and Cycle 2 Day 1 in Cohorts 8–12. Tumour imaging assessments using computed tomography or magnetic resonance imaging of the chest and abdomen/pelvis were performed at screening (≤28 days prior to initiation of treatment), and then every 2 cycles.
The safety analysis set comprised all patients who received at least one dose of AZD2811. The PK analysis set comprised all patients who received at least one dose of AZD2811 with at least one reportable concentration. […] There was no formal statistical analysis of safety and efficacy data. The numbers of patients experiencing each AE were summarised by Medical Dictionary for Regulatory Activities (MedDRA) version 22.1 system organ class, MedDRA preferred term, and CTCAE grade. The ORR and best overall response based on RECIST 1.1 were summarised. AZD2811 blood concentrations and derived PK parameters were summarised by dose regimen. Summary statistics were calculated for area under the curve (AUC), time of maximum concentration (tmax), and maximum concentration after a single dose (Cmax).
Compartmental PK analysis was used to derive AUC from time zero to the time of the last planned sampling time in the study (AUC0–504h). Cmax and tmax were derived using the standard non-compartmental approach. PK parameters of Cmax, tmax, and AUC0–504h are summarised by cohort in Supplementary Table 2, and geometric mean AZD2811 whole blood concentrations are presented by cohort in Fig. 3. Maximum AZD2811 whole blood concentrations were observed after the end of infusions (Days 1 and 4). […] There was evidence of a second and third phase, 96 and 264 h post-dose. […] Urine samples were only collected in the first four cohorts, and AZD2811 concentrations were below the limit of quantification in the majority (>80%). Consequently, only the total amount of unchanged AZD2811 excreted into urine over 0–72 h was calculated; the maximum amount excreted was 294.40 µg for a patient in Cohort 4 (51 mg AZD2811), which represented <1% of the dose.
Fig. 3 Geometric mean (±geoSD) AZD2811 whole blood concentrations. a For days 1 and 4 regimens and b for day 1 only regimens. In Cohorts 1–6, PK blood samples (4 mL per sample) for determination of AZD2811 blood concentrations were collected from all patients on Cycle 1 Day 1 pre-dose, and at 1, 2, 4, 6, 8, 24, and 48 h (±15 min for each time point) from the start of infusion, then on Cycle 1 Day 4 pre-dose, and at 1, 2, 4, 6, 8, and 24 h (day 5), 48 h (day 6), 96 h (day 8) from the start of infusion, and in the morning on days 15, 16, and 22. A Cycle 2 Day 1 pre-dose sample and a 2-h sample (end of infusion) were also obtained. In Cohorts 7–12, PK blood samples were collected from all patients on Cycle 1 Day 1 pre-dose, and at 1, 2, 4, 6, and 8 h from the start of infusion, and in the morning on Days 4, 8, 12, and 22. G-CSF granulocyte colony stimulating factor, PK pharmacokinetics, Q3W every 3 weeks, Q4W every 4 weeks.

[1] = intravenous, 15 mg, Cohort 1: 15 mg, Days 1 and 4, 28-day cycles, no G-CSF, N = 3
[2] = intravenous, 25 mg, Cohort 2: 25 mg, Days 1 and 4, 28-day cycles, no G-CSF, N = 3
[3] = intravenous, 38 mg, Cohort 3: 38 mg, Days 1 and 4, 28-day cycles, no G-CSF, N = 3
[4] = intravenous, 51 mg, Cohort 4: 51 mg, Days 1 and 4, 28-day cycles, no G-CSF, N = 3
[5] = intravenous, 100 mg, Cohort 5: 100 mg, Days 1 and 4, 28-day cycles, no G-CSF, N = 3
[6] = intravenous, 200 mg, Cohort 8: 200 mg, Day 1, 21-day cycles, optional G-CSF, N = 3
[7] = intravenous, 200 mg, Cohort 6: 200 mg, Days 1 and 4, 28-day cycles, no G-CSF, N = 9
[8] = intravenous, 200 mg, Cohort 7: 200 mg, Day 1, 28-day cycles, optional G-CSF, N = 4
[9] = intravenous, 400 mg, Cohort 9: 400 mg, Day 1, 21-day cycles, optional G-CSF, N = 7
[10] = intravenous, 500 mg, Cohort 12: 500 mg, Day 1, 21-day cycles, mandatory G-CSF, N = 6
[11] = intravenous, 600 mg, Cohort 11: 600 mg, Day 1, 21-day cycles, mandatory G-CSF, N = 3
[12] = over 0–72 h, a patient in Cohort 4 (51 mg AZD2811)

With `CCN(CCO)CCCOc1ccc2c(Nc3cc(CC(=O)Nc4cccc(F)c4)n[nH]3)ncnc2c1` [AZD2811, AZD1152 hydroxyquinazoline pyrazole anilide] the “Dose proportionality of PK” value (across the dose range evaluated (15–600 mg)) was “broadly dose-proportional”, the “Urine samples with AZD2811 concentrations below the limit of quantification” value (first four cohorts) was over 80% and the “Duration of AZD2811 blood exposure” value (following a 2-h infusion on Day 1) was “sustained for several days”. The “End of gradual monophasic decline in concentration post-infusion” value (following a 2-h infusion on Day 1, second and third phase 96 and 264 h post-dose) was “approximately 96 h”, the Cmax (in vivo, Cohort 8: 200 mg, Day 1, 21-day cycles, optional G-CSF, N = 3) was 41400 ng/mL and the AUC(0-t) [1] was 362 µg·h/mL. It also gave a Cmax [1] of 3900 ng/mL, a Tmax [1] of 77 h and an AUC(0-t) [2] of 658 µg·h/mL. The Cmax [2] was 6700 ng/mL, the Tmax [2] was 75 h and the AUC(0-t) [3] was 917 µg·h/mL. The Cmax [3] was 8900 ng/mL, the Tmax [3] was 75 h and the AUC(0-t) [4] was 1420 µg·h/mL. For the same compound, the Cmax [4] was 14500 ng/mL, the Tmax [4] was 78 h and the AUC(0-t) [5] was 3670 µg·h/mL. It also gave a Cmax [5] of 36800 ng/mL, a Tmax [5] of 78 h and an AUC(0-t) (intravenous, 200 mg, Cohort 6: 200 mg, Days 1 and 4, 28-day cycles, no G-CSF, N = 8) of 6220 µg·h/mL. The AUC(0-t) (intravenous, 200 mg, Cohort 7: 200 mg, Day 1, 28-day cycles, optional G-CSF, N = 3) was 3020 µg·h/mL, the AUC(0-t) [6] was 2750 µg·h/mL and the Cmax [7] was 58300 ng/mL. It also gave a Tmax [7] of 74 h, a Cmax [8] of 43400 ng/mL and a Tmax [8] of 2 h. The Tmax [6] was 4 h, the AUC(0-t) [9] was 5440 µg·h/mL and the Cmax [9] was 87300 ng/mL. The Tmax [9] was 3 h, the AUC(0-t) (intravenous, 500 mg, Cohort 12: 500 mg, Day 1, 21-day cycles, mandatory G-CSF, N = 5) was 7840 µg·h/mL and the Cmax [10] was 93900 ng/mL. The Tmax [10] was 6 h, the AUC(0-t) [11] was 11600 µg·h/mL and the Cmax [11] was 138000 ng/mL. For the same compound, the Tmax [11] was 6 h, the “Maximum amount excreted into urine as part of the dose” value [12] was < 1 % of the dose and the “Maximum amount of unchanged AZD2811 excreted into urine” value [12] was 294.40 µg.
